Earlier results on one compound are cited in publication PMC11224109, “Synthesis and preclinical evaluation of novel ^18F-vancomycin-based tracers for the detection of bacterial infections using positron emission tomography” (European Journal of Nuclear Medicine and Molecular Imaging, 2024).

Structures are written as SMILES.

For this data set the following is noted: cited from earlier work.

`CN[C@H](CC(C)C)C(=O)N[C@H]1C(=O)N[C@@H](CC(N)=O)C(=O)N[C@H]2C(=O)N[C@H]3C(=O)N[C@H](C(=O)N[C@H](C(=O)O)c4cc(O)cc(O)c4-c4cc3ccc4O)[C@H](O)c3ccc(c(Cl)c3)Oc3cc2cc(c3O[C@@H]2O[C@H](CO)[C@@H](O)[C@H](O)[C@H]2O[C@H]2C[C@](C)(N)[C@H](O)[C@H](C)O2)Oc2ccc(cc2Cl)[C@H]1O` [vancomycin]: the “Clinically relevant serum levels” value was “about 15 µg/mL”.
